Data taken from patent publication US20260070921A1, “COMPOUND, ENDOPLASMIC RETICULUM STRESS INHIBITOR, PHARMACEUTICAL PRODUCT, OPHTHALMIC AGENT, EYE DROPS, COMPOSITION, AND METHOD FOR PRODUCING COMPOUND” (KYOTO UNIVERSITY, priority 2022, published 2026).

What was measured:
BiP = experiment: Quantitative RT-PCR of ER stress-related genes, BiP; format: cell-based; conditions: pretreatment 10 h, tunicamycin 1.0 μg/mL 24 h
Description: (§1) First, total RNA was isolated using ISOGEN (tradename of Nippon Gene Co., Ltd.). cDNA was prepared using a Prime Script (trade name) first-strand cDNA synthesis kit (TaKaRa). qRT-PCR was performed with Fast SYBR Green Master Mix (Thermo Fisher) on a QuantStudio 3 real-time PCR system (Thermo Fisher). The copy number of each transcript is expressed relative to β-actin. The sequences of the primers (forward and reverse) are as follows: […]
(§2) The ability to alleviate endoplasmic reticulum (ER) stress of compound 1 was examined in HEK293 cells. FIGS. 1 and 2 show the biological activity of compound 1 for decreasing cytotoxicity under ER stress. […] Error bars represent s.d. (n=3). Statistical analysis was performed according to one-way ANOVA and a Dunnett's test using R software. […] To further study the effect of compound 1 on ER stress, mRNA levels of typical UPR genes, such as ATF4, s-XPB1, CHOP, BiP, and ERDJ4, were examined. In addition to compound 1, compound 6 was also tested in the same experiment. […] The quantitative RT-PCR was performed according to the method described above. HEK293 cells were treated with compound 1 (100 μM) for 10 hours and then incubated with tunicamycin (1.0 μg/mL) for 24 hours. Isolated RNA samples were subjected to reverse transcription and quantitative RT-PCR. […]

CHOP = experiment: Quantitative RT-PCR of ER stress-related genes, CHOP; format: cell-based; conditions: pretreatment 10 h, tunicamycin 1.0 μg/mL 24 h
Description: as §1, §2

HEK293 cells = experiment: Tunicamycin assay (cell viability under ER stress, WST-8); format: cell-based; parameters: key to Efficacy 5 μM (ER stress inhibition activity) / Efficacy 25 μM (ER stress inhibition activity) / Efficacy 100 μM (ER stress inhibition activity): “−” indicates no activity; “+” indicates weak activity; “++” indicates strong activity; conditions: for EC50: Homo sapiens, HEK293, read-out: EC50 (dose-response curve, Hill equation); for EC50 / Concentration at which activity was shown: tunicamycin 5.0 μg/mL 48 h
Description: HEK293 cells were seeded in 96-well plates ([…]) and incubated at 37° C. for 2 hours. The medium was then replaced with 100 μL of DMEM ([…]) containing self-assembling chemicals (20 or more compounds, including compounds of the present disclosure) and 1% DMSO. After incubation with any one of compounds 1 to 6 at a given concentration for 12 to 18 hours, HEK293 cells were treated with tunicamycin (5 μg/mL) or thapsigargin (10 μM) for 48 hours, and cell viability was measured using a WST-8 cell counting kit (Dojindo Laboratories).
Produced compounds XD8 to XD28 were subjected to a tunicamycin assay in the same manner as in Examples 1 to 9. Specifically, HEK293 cells were first seeded in a 96-well plate (1×10^4 cells/well) and incubated at 37° C. for 2 hours. The medium was then replaced with 100 μL of DMEM (10% FBS) containing a self-assembling chemical (each of compounds XD8 to XD28) and […]. After incubation with any of compounds XD8 to XD28 at a concentration of 5.0 μM, 25 μM, or 100 μM for 12 to 18 hours, HEK293 cells were treated with tunicamycin (5 μg/mL) for 48 hours, followed by measuring cell viability by using a WST-8 cell counting kit (Dojindo Laboratories).

[1] = Dynamic light scattering (DLS) of self-assemblies; format: physicochemical
Source text: In the graphs on the left, the vertical axis “Z-ave. (nm)” represents the average particle size. In the graphs on the right, the vertical axis “Derived Count Rate (kcps)” represents the derived count rate. The horizontal axis represents the molar concentration (PM) of PBS (pH of 7.4) and DMEM (10% FBS). Error bars represent s.d. (n=3).
“Z-ave.” represents the average size of particles. Error bars represent s.d. (n=3).
“Z-average” represents the average size of particles. Error bars represent s.d. (n=3).

Solubility = format: physicochemical; conditions: in DMSO
[2] = Reversibility of self-assembly on dilution (DCVJ fluorescence); format: physicochemical; conditions: dilution of preformed assemblies
Description: Compound 1 (100 μM) was incubated in DMEM (10% FBS, 0.5, DMSO) at 25° C. for 1 hour to allow it to form self-assemblies. A solution of pre-formed assemblies of compound 1 was diluted in various ratios with DMEM (10% FBS, 0.5% DMSO). All samples contained 1.0 μM DCVJ, an environmentally sensitive dye, to quantify the amount of self-assembly of compound 1 by fluorescence. If the self-assembly is irreversible (upper graph in the frame), the fluorescence signal is linear with respect to the amount of the compound. […] In the two graphs within the frame, the vertical axis represents fluorescence, and the horizontal axis represents concentration. […] A time-dependent decrease in fluorescence at 25 μM (as a monomer of compound 1) was also observed. Error bars represent s.d. (n=3).

C57BL6J mice = experiment: Lens-induced myopia in mice, eye drops; format: in vivo; conditions: −30 D lens 3 weeks, eye drop once a day
Description: A −30 diopter (unit of refractive index: D) lens was attached to the right eye of 3-week-old male C57BL6J mice, while only a lens frame was attached to the left eye, which served as a control eye. The lenses were worn for three weeks, and the refractive index and axial length of eyes were measured before and after attachment of the lenses. Concurrently with myopia induction, an eye drop, which is a 0.025 solution of X441A in PBS, was administered by instillation once a day every day. PBS was administered by eye drop to the control group (group administered with PBS). After 3 weeks of myopia induction and eye drop administration, the eyeballs were enucleated from the mice, and the sclera was isolated. Then, western blotting was performed to analyze the expression levels of p62, Atg5, and Atg12 in each group.

Row | Compound | Effect on BiP mRNA levels (BiP) | Increase in CHOP mRNA levels (CHOP) | EC50 (HEK293 cells) | Efficacy 5 μM (ER stress inhibition activity) (HEK293 cells; compound 5 μM 12 to 18 h, then tunicamycin 5 μg/mL 48 h) | Efficacy 25 μM (ER stress inhibition activity) (HEK293 cells; compound 25 μM 12 to 18 h, then tunicamycin 5 μg/mL 48 h) | Efficacy 100 μM (ER stress inhibition activity) (HEK293 cells; compound 100 μM 12 to 18 h, then tunicamycin 5 μg/mL 48 h) | Concentration at which activity was shown (HEK293 cells) | Average size of the assemblies (diameter) ([1]; cell culture medium, 25 μM) | Solubility (Solubility) | Cell viability under ER stress (HEK293 cells; 100 μM pre-incubation 12 h, then thapsigargin 10 μM or tunicamycin 5.0 μg/mL 48 h) | Reversibility of self-assembly [2] | Average size of the assemblies (diameter) ([1]; DMEM (10% FBS), 100 μM) | Average size of the assemblies (diameter) ([1]; PBS (pH of 7.4), 100 μM) | Axial length elongation of eyes (C57BL6J mice) | Myopic shift in refractive index (C57BL6J mice)
1 | COc1ccc2c(c1)sc1c(=O)nc3nc(Nc4ccc(S(N)(=O)=O)cc4)ccn3c12 [compound 6] | limited effect | completely suppressed | 13.7 µM | − | ++ | ++ | 25 µM | 130 nm |  |  |  |  |  |  | 
2 | NS(=O)(=O)c1ccc(Nc2ccn3c(n2)nc(=O)c2sc4cc(F)ccc4c23)cc1 [compound 1] | limited effect | completely suppressed | 38.1 µM |  |  |  | 100 µM |  | readily soluble | enhanced cell viability under ER stress conditions | disintegration of the particles | ~200 nm | about 700 nm | such changes were not observed | such changes were not observed
